Calls of active or inactive are those of the source.

As usually defined, the IC50 is the concentration needed to halve the response being measured. Low readings indicate inhibition by little substance, high ones a need for much substance. Broadly, the inhibition in vivo is how much of the control response was suppressed. Broadly, the Kd is the equilibrium constant for the complex coming apart. Low readings indicate tighter binding, high ones weaker binding. The clearance is a measure of how efficiently the substance is removed, as volume per time. A low value points to inefficient removal. By half-life is commonly meant the time needed for the level to fall by half in the phase considered. In general, bioavailability refers to the share of a dose that reaches the circulation, judged against a reference dose that is usually intravenous.

Data set [1] concerns the target T1, High affinity nerve growth factor receptor (Homo sapiens, UniProt P04629). In words: Inhibition of purified TrkA cytoplasmic domain (unknown origin) by HTRF assay. In general terms: TR-FRET usually uses a lanthanide donor and a delayed reading to cut background.
Target sequence in this assay (P04629 whole entry, the tested form may be a part): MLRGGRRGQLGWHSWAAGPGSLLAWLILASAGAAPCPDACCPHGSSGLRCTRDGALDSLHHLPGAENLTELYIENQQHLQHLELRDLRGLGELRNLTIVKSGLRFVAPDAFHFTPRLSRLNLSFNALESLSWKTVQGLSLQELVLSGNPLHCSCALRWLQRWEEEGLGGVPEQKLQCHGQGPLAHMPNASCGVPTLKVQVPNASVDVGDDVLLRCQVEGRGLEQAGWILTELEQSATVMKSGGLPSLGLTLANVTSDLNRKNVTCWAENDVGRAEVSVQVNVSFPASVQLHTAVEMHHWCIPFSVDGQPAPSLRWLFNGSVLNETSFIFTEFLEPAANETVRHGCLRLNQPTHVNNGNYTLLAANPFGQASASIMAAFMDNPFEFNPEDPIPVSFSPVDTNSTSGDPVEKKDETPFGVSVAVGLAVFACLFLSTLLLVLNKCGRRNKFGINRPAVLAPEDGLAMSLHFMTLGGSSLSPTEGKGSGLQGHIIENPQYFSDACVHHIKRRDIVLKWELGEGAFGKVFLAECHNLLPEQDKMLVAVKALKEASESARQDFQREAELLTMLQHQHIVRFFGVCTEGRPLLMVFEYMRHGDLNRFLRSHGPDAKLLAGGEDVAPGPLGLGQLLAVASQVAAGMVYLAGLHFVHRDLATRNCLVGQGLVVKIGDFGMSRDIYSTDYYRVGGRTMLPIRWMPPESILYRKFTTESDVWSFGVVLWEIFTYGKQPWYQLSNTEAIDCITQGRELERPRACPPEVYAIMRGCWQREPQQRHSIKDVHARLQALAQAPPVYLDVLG
For data set [2], the target named is T1, High affinity nerve growth factor receptor.
Target sequence in this assay (P04629 whole entry, the tested form may be a part): as above
Description: Inhibition of phsophorylated TrkA (unknown origin) assessed as inhibition of fluorescently-labelled substrate phosphorylation by CALIPER enzymatic assay
For data set [3] the target is unchanged. The source holds these as a separate data set.
Target sequence in this assay (P04629 whole entry, the tested form may be a part): as above
Description: Inhibition of human TrkA expressed in human U2OS cells assessed as inhibition of NGF-induced maximum response after 1 hr by beta-galactosidase assay
Data set [4] is described as follows: Ratio of fraction unbound in plasma of Complete-Freunds adjuvant-induced Sprague-Dawley rat pain model at 30 mg/kg, po after 2 hrs to IC50 for human TrkA expressed in human U2OS cells. Type of data set: ADME, organism-based. On the set-up: dose 30 mg/kg, route oral. As to conditions: in vivo.
The nature of data set [5]: Plasma concentration in Complete-Freunds adjuvant-induced Sprague-Dawley rat pain model at 10 mg/kg, po after 2 hrs. It counts as ADME, organism-based. On the set-up: dose 10 mg/kg, route oral.
In data set [6] the test system is Rattus norvegicus. Briefly: Analgesic activity in Sprague-Dawley rat Chung spinal nerve ligation model assessed as reversal of mechanical hypersensitivity at 30 mg/kg, po relative to control. Type of data set: functional.
Data set [7] in a line: Plasma protein binding in rat. Type of data set: ADME, cell-free. The settings on record: read-out: PPB (converted).
Data set [8] concerns Plasma. Briefly: Fraction unbound in plasma of Sprague-Dawley rat Chung spinal nerve ligation model assessed as reversal of mechanical hypersensitivity at 30 mg/kg, po. Type of data set: ADME, organism-based. On the set-up: dose 30 mg/kg, route oral. As to conditions: in vivo.
Data set [9] can be described thus: Plasma concentration in Complete-Freunds adjuvant-induced Sprague-Dawley rat pain model at 100 mg/kg, po after 2 hrs. It counts as ADME, organism-based. Also on record: dose 100 mg/kg, route oral.
Data set [10] deals with Plasma. In words: Plasma concentration in Sprague-Dawley rat Chung spinal nerve ligation model assessed as reversal of mechanical hypersensitivity at 30 mg/kg, po. Type of data set: ADME, organism-based. On the set-up: dose 30 mg/kg, route oral. The settings on record: in vivo.
The nature of data set [11]: Ratio of fraction unbound in plasma of Sprague-Dawley rat Chung spinal nerve ligation model assessed as reversal of mechanical hypersensitivity at 100 mg/kg, po to IC50 for human TrkA expressed in human U2OS cells. Type of data set: ADME, organism-based. The settings on record: in vivo. Also on record: dose 100 mg/kg, route oral.
Data set [12] addresses T1, High affinity nerve growth factor receptor. The source holds these as a separate data set.
Target sequence in this assay (P04629 whole entry, the tested form may be a part): as above
Description: Binding affinity to His-tagged TrkA (unknown origin) after 1 hr by SPR method
A short description of data set [13]: Plasma concentration in Complete-Freunds adjuvant-induced Sprague-Dawley rat pain model at 30 mg/kg, po after 2 hrs. Type of data set: ADME, organism-based. Also on record: dose 30 mg/kg, route oral.
Data set [14] in a line: Clearance in rat. As to conditions: in vivo. Type of data set: ADME, organism-based.
In data set [15] the test system is Plasma. Briefly: Fraction unbound in plasma of Sprague-Dawley rat Chung spinal nerve ligation model assessed as reversal of mechanical hypersensitivity at 100 mg/kg, po. Type of data set: ADME, organism-based. On the set-up: dose 100 mg/kg, route oral. As to conditions: in vivo.
Data set [16] relates to Rattus norvegicus. Briefly: Antiinflammatory activity in Complete-Freunds adjuvant-induced Sprague-Dawley rat pain model assessed as reversal of mechanical hypersensitivity at 30 mg/kg, po bid for 7 days. It counts as functional, organism-based. Also on record: dose 30 mg/kg.
Data set [17] concerns Plasma. Briefly: Fraction unbound in plasma of Complete-Freunds adjuvant-induced Sprague-Dawley rat pain model at 30 mg/kg, po after 2 hrs. It counts as ADME, organism-based. On the set-up: dose 30 mg/kg, route oral. The settings on record: in vivo.
Data set [18] relates to Plasma. In words: Fraction unbound in plasma of Sprague-Dawley rat Chung spinal nerve ligation model assessed as reversal of mechanical hypersensitivity at 10 mg/kg, po. Type of data set: ADME, organism-based. On the set-up: dose 10 mg/kg, route oral. As to conditions: in vivo.
For data set [19], the system named is Plasma. In words: Plasma concentration in Sprague-Dawley rat Chung spinal nerve ligation model assessed as reversal of mechanical hypersensitivity at 100 mg/kg, po. It counts as ADME, organism-based. Also on record: dose 100 mg/kg, route oral. The settings on record: in vivo.
Data set [20] can be described thus: Half life in rat. Type of data set: ADME, organism-based. The settings on record: in vivo.
Data set [21] can be described thus: Ratio of fraction unbound in plasma of Sprague-Dawley rat Chung spinal nerve ligation model assessed as reversal of mechanical hypersensitivity at 30 mg/kg, po to IC50 for human TrkA expressed in human U2OS cells. Also on record: dose 30 mg/kg, route oral. As to conditions: in vivo. Type of data set: ADME, organism-based.
A short description of data set [22]: Ratio of fraction unbound in plasma of Sprague-Dawley rat Chung spinal nerve ligation model assessed as reversal of mechanical hypersensitivity at 10 mg/kg, po to IC50 for human TrkA expressed in human U2OS cells. It counts as ADME, organism-based. Also on record: dose 10 mg/kg, route oral. The settings on record: in vivo.
In data set [23] the test system is Rattus norvegicus. In words: Antiinflammatory activity in Complete-Freunds adjuvant-induced Sprague-Dawley rat pain model assessed as reversal of mechanical hypersensitivity at 100 mg/kg, po bid for 7 days. Type of data set: functional, organism-based. On the set-up: dose 100 mg/kg.
In data set [24] the test system is Plasma. In words: Fraction unbound in plasma of Complete-Freunds adjuvant-induced Sprague-Dawley rat pain model at 10 mg/kg, po after 2 hrs. It counts as ADME, organism-based. Also on record: dose 10 mg/kg, route oral. The settings on record: in vivo.
The target in data set [25] is T1, High affinity nerve growth factor receptor. The source holds these as a separate data set.
Target sequence in this assay (P04629 33-796 limits assumed): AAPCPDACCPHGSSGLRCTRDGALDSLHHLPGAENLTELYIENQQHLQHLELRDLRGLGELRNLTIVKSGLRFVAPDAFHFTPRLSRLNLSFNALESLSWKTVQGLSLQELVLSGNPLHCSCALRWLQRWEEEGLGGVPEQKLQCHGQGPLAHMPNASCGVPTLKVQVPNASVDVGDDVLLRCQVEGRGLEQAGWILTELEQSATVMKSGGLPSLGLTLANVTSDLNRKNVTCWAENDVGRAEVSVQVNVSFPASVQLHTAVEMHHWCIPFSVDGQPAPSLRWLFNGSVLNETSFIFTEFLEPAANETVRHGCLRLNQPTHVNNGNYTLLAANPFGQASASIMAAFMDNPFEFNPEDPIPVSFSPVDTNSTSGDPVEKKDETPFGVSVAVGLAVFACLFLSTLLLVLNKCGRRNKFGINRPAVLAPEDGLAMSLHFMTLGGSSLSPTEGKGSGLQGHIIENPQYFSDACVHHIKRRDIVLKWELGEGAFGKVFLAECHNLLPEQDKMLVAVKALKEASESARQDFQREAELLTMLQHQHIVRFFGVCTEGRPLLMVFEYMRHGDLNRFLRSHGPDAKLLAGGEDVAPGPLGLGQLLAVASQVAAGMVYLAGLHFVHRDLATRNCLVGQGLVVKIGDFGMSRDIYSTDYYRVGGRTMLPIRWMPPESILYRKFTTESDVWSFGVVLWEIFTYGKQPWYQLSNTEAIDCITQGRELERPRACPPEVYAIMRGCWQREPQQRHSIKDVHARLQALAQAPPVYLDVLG
Description: Binding affinity to His-tagged TrkA (unknown origin) assessed as half life after 1 hr by SPR method
A short description of data set [26]: Ratio of fraction unbound in plasma of Complete-Freunds adjuvant-induced Sprague-Dawley rat pain model at 100 mg/kg, po after 2 hrs to IC50 for human TrkA expressed in human U2OS cells. Type of data set: ADME, organism-based. On the set-up: dose 100 mg/kg, route oral. The settings on record: in vivo.
The subject of data set [27] is Plasma. In words: Plasma concentration in Sprague-Dawley rat Chung spinal nerve ligation model assessed as reversal of mechanical hypersensitivity at 10 mg/kg, po. On the set-up: dose 10 mg/kg, route oral. Type of data set: ADME, organism-based. As to conditions: in vivo.
A short description of data set [28]: Oral bioavailability in rat. Type of data set: ADME, organism-based. The settings on record: in vivo.
Data set [29] relates to Plasma. Briefly: Fraction unbound in plasma of Complete-Freunds adjuvant-induced Sprague-Dawley rat pain model at 100 mg/kg, po after 2 hrs. Type of data set: ADME, organism-based. On the set-up: dose 100 mg/kg, route oral. The settings on record: in vivo.
The nature of data set [30]: Ratio of fraction unbound in plasma of Complete-Freunds adjuvant-induced Sprague-Dawley rat pain model at 10 mg/kg, po after 2 hrs to IC50 for human TrkA expressed in human U2OS cells. Type of data set: ADME, organism-based. Also on record: dose 10 mg/kg, route oral. As to conditions: in vivo.
For data set [31], the system named is Rattus norvegicus. Briefly: Analgesic activity in po dosed Sprague-Dawley rat Chung spinal nerve ligation model assessed as reversal of mechanical hypersensitivity relative to control. It counts as functional, organism-based.

Compound `c1cncc(CNc2ccc3ncnc(Nc4ccc(N5CCOCC5)cc4)c3n2)c1` showed an IC50 in data set [1] of 997 nM.

Regarding `CCOc1cccc(-c2nccc3c2cc(C(=O)O)n3CCOc2ccccc2)c1`, the 50% inhibitory concentration (IC50) in data set [2] came to 2070 nM; in data set [3] it was 109 nM.

With `CC(C)N(Cc1c[nH]c2ncccc12)C(=O)Nc1ccc(OC(F)(F)F)cc1`, the half-maximal inhibitory concentration (IC50) stood at 11 nM in data set [2] and 3 nM in data set [3].

Take `Cc1cn(-c2ccc(-c3cn(CC(=O)Nc4cc(C5CC5)nn4-c4ccccc4)nn3)cc2)cn1`: the IC50 came to 9 nM in data set [3] and 60 nM in [1].

As for `CC(C)(C)c1cc(NC(=O)Cn2cc(-c3ccc(-n4ccnc4)nc3)nn2)n(-c2cccnc2)n1`, the Ratio in data set [4] was determined as 4; in data set [11] it was 23; in [21] it was 6; in data set [22], 1; in data set [26], 16; in [30] it was 1. For the same compound, the concentration at 2 h in data set [5] is 1000 nM; in data set [9], 16 µM; in data set [13] it was 4 µM. Besides, the inhibition in vivo at 30 mg/kg in the data set on Rattus norvegicus [6] is 50%. Also, the fraction unbound in data set [7] is 0.005. In addition, the “Cp(f)” value with Plasma [8] is recorded as 34 nM; in the data set on Plasma [15], 115 nM; in the data set with Plasma [17], 20 nM; in the data set with Plasma [18], 5 nM; in the data set on Plasma [24], 5 nM; in the data set on Plasma [29], 80 nM. The concentration in the data set with Plasma [10] turned out to be 6.7 µM; in the data set with Plasma [19] it was 23 µM; with Plasma [27], 1000 nM. In addition, the equilibrium dissociation constant (Kd) in data set [12] was determined as 0.94 nM. This compound returned a clearance in data set [14] of 16 mL/min/kg. Besides, the inhibition result in the data set on Rattus norvegicus [16] and in the data set with Rattus norvegicus [23] was “Active” each time. This compound also had a half-life in [20] of 156 min. Further, the IC50 in [3] was found to be 7 nM; in data set [1] it was 9 nM. For the same compound, the T1/2 in data set [25] turned out to be 1.13 h. In data set [28], this compound showed a bioavailability of 30%.

Consider `CN1CCN(c2ccc(Nc3ncnc4ccc(NCc5cccc(Cl)c5)nc34)cc2)CC1`, for which the Kd in [12] amounted to 63 nM. Also, the IC50 in data set [2] worked out at 1690 nM; in data set [1], 11 nM.

With `O=C(O)c1cc2cnccc2n1CCOc1ccc(OC(F)(F)F)cc1`, the IC50 in data set [2] amounted to 12300 nM; in [3] it was 15800 nM.

In the case of `O=C(O)c1cc2cc(-c3cc[nH]n3)ccc2n1CCOc1ccc(OC(F)(F)F)cc1`, the IC50 in [2] was determined as 51 nM; in [3] it was 29 nM.

For `N#Cc1ccc2c(c1)cc(C(=O)O)n2CCOc1ccc(OC(F)(F)F)cc1`, the IC50 in data set [2] came to 118 nM; in [3] it was 150 nM.

In the case of `O=C(NCc1cccc(-c2nccs2)c1)Nc1ccc(OC(F)(F)F)cc1`, in data set [2], the concentration for half-maximal inhibition (IC50) is greater than 100000 nM.

In turn, `CCOc1cccc(-c2nccc3c2cc(C(=O)O)n3CCOc2ccc(Cl)cc2)c1` displayed a Kd in [12] of 3.5 nM. Besides, the IC50 in [2] turned out to be 653 nM; in [3], 200 nM. The compound also showed a T1/2 in [25] of 2.13 h.

Turning to `CC(C)N(Cc1cccc(-c2nccs2)c1)C(=O)Nc1ccc(OC(F)(F)F)cc1`, in data set [12], the Kd was 63 nM. The IC50 in data set [2] is 132 nM; in data set [3], 56 nM. In addition, the T1/2 in data set [25] was determined as 0.1 h.

On to `Cc1cn2cc(CNc3ncnc4ccc(N5CCC[C@@H]5c5cc(F)ccc5F)nc34)nc2s1`, for which the concentration for half-maximal inhibition (IC50) in data set [2] was 13 nM; in data set [1], 1.5 nM.

Regarding `CC(C)C[C@H](CN)CC(=O)O`, the inhibition entry in the data set on Rattus norvegicus [31] was “Active”.

For the compound `COc1ccc2cc([C@H](C)C(=O)O)ccc2c1`, the inhibition result in the data set with Rattus norvegicus [16] is “Active”.

In the case of `CCOc1cccc(-c2nccc3c2cc(C(=O)O)n3CCOc2ccc(OC(F)(F)F)cc2)c1`, the half-inhibitory concentration (IC50) in data set [2] worked out at 348 nM; in data set [3] it was 59 nM.
